From ChEMBL document CHEMBL3525904, “Effect of structural variation on aldehyde oxidase-catalyzed oxidation of zoniporide” (Drug Metab Dispos, 2012)

T1: Aldehyde oxidase (Homo sapiens, UniProt Q06278)
T1 sequence (Q06278 whole entry): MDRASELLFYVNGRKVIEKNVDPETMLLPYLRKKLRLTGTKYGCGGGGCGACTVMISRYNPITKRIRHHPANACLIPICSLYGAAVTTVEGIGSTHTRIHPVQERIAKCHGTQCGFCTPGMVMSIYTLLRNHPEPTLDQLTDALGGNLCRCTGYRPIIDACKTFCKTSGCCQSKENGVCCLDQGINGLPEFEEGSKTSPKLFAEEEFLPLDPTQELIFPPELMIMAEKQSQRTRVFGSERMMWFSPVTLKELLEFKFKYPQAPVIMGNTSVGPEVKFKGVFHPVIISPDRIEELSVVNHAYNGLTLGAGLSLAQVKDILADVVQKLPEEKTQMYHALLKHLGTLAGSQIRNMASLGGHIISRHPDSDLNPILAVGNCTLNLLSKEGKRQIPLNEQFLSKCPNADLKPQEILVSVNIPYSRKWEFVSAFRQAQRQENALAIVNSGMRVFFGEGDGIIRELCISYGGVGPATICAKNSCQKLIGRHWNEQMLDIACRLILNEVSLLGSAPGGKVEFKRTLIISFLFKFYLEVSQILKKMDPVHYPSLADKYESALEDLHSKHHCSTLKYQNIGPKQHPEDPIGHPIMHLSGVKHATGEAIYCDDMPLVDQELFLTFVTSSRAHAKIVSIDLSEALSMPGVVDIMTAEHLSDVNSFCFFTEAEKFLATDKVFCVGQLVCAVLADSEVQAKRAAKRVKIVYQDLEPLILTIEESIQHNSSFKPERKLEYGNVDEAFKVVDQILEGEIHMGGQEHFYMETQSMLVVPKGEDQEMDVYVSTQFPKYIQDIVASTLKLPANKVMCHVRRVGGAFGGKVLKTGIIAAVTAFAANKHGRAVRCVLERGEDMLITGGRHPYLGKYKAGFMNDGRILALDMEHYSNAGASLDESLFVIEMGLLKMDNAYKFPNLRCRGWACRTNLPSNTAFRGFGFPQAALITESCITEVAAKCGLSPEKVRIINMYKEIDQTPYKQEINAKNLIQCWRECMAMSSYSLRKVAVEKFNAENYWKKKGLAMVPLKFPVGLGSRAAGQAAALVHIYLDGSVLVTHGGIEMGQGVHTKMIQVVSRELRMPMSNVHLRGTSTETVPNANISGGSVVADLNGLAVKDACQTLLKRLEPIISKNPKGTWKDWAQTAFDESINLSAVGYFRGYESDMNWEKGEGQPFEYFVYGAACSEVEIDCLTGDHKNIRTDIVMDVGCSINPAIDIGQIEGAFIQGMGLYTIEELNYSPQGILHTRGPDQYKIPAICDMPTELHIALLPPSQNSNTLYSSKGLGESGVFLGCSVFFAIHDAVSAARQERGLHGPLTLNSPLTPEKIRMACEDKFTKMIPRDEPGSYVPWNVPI

B1: Aldehyde oxidase (Homo sapiens) (protein)
chain: T1 sequence (Q06278 whole entry)

Legend:
Format in all cases: ADME, subcellular
[1] = molecular target: T1, Aldehyde oxidase; experiment: Drug metabolism in human liver S9 fraction assessed as aldehyde oxidase-mediated 2-oxo-metabolite formation at 10 uM by spectrometry; conditions: s9, 10 µM
[2] = molecular target: T1, Aldehyde oxidase; experiment: Half life in human liver S9 fraction assessed as aldehyde oxidase-mediated 2-oxo-metabolite formation at 1 uM by spectrometry; conditions: s9, 1 µM
[3] = molecular target: T1, Aldehyde oxidase; experiment: Drug level in human liver S9 fraction assessed as aldehyde oxidase-mediated compound formation treated with 10 uM N-carbamimidoyl-5-(methoxymethyl)-1-(quinolin-5-yl)-1H-pyrazole-4-carboxamide by spectrometry
[4] = molecular target: T1, Aldehyde oxidase; experiment: Drug level in human liver S9 fraction assessed as aldehyde oxidase-mediated compound formation treated with 10 uM N-carbamimidoyl-5-cyclopropyl-1-(6-methylquinolin-5-yl)-1H-pyrazole-4-carboxamide by spectrometry
[5] = molecular target: T1, Aldehyde oxidase; experiment: Drug level in human liver S9 fraction assessed as aldehyde oxidase-mediated compound formation treated with 10 uM N-carbamimidoyl-5-cyclopropyl-1-(6-hydroxyquinolin-5-yl)-1H-pyrazole-4-carboxamide by spectrometry
[6] = molecular target: T1, Aldehyde oxidase; experiment: Drug level in human liver S9 fraction assessed as aldehyde oxidase-mediated compound formation treated with 10 uM 5-cyclopropyl-N,N-diethyl-1-(quinolin-5-yl)-1H-pyrazole-4-carboxamide by spectrometry
[7] = molecular target: T1, Aldehyde oxidase; experiment: Drug level in human liver S9 fraction assessed as aldehyde oxidase-mediated compound formation treated with 10 uM N-carbamimidoyl-5-cyclopropyl-1-(6-methoxyquinolin-5-yl)-1H-pyrazole-4-carboxamide by spectrometry
[8] = molecular target: T1, Aldehyde oxidase; experiment: Drug level in human liver S9 fraction assessed as aldehyde oxidase-mediated compound formation treated with 10 uM N-carbamimidoyl-3-cyclopropyl-1-(quinolin-5-yl)-1H-pyrazole-4-carboxamideby spectrometry
[9] = molecular target: T1, Aldehyde oxidase; experiment: Drug level in human liver S9 fraction assessed as aldehyde oxidase-mediated compound formation treated with 10 uM 5-cyclopropyl-1-(quinolin-5-yl)-1H-pyrazole-4-carboxamide by spectrometry
[10] = molecular target: T1, Aldehyde oxidase; experiment: Drug level in human liver S9 fraction assessed as aldehyde oxidase-mediated compound formation treated with 10 uM zoniporide by spectrometry
[11] = molecular target: T1, Aldehyde oxidase; experiment: Drug level in human liver S9 fraction assessed as aldehyde oxidase-mediated compound formation treated with 10 uM 5-butyl-N-carbamimidoyl-1-(quinolin-5-yl)-1H-pyrazole-4-carboxamide by spectrometry
[12] = molecular target: T1, Aldehyde oxidase; experiment: Drug level in human liver S9 fraction assessed as aldehyde oxidase-mediated compound formation treated with 10 uM 5-cyclopropyl-1-(quinolin-5-yl)-1H-pyrazole-4-carboxylic acid by spectrometry
[13] = molecular target: T1, Aldehyde oxidase; experiment: Drug level in human liver S9 fraction assessed as aldehyde oxidase-mediated compound formation treated with 10 uM N-carbamimidoyl-5-isopropyl-1-(quinolin-5-yl)-1H-pyrazole-4-carboxamide by spectrometry
[14] = molecular target: T1, Aldehyde oxidase; experiment: Drug level in human liver S9 fraction assessed as aldehyde oxidase-mediated compound formation treated with 10 uM N-carbamimidoyl-5-propyl-1-(quinolin-5-yl)-1H-pyrazole-4-carboxamide by spectrometry
[15] = molecular target: T1, Aldehyde oxidase; experiment: Drug level in human liver S9 fraction assessed as aldehyde oxidase-mediated compound formation treated with 10 uM N-carbamimidoyl-5-methyl-1-(quinolin-5-yl)-1H-pyrazole-4-carboxamide by spectrometry
[16] = substrate: CCN(CC)C(=O)c1cnn(-c2cccc3ncccc23)c1C1CC1; experiment: (§1) Drug metabolism in human liver S9 fraction assessed as aldehyde oxidase-mediated 2-oxo-metabolite formation by spectrometry
[17] = substrate: N=C(N)NC(=O)c1cnn(-c2ccnc3ccccc23)c1C1CC1; experiment: as §1
[18] = substrate: N=C(N)NC(=O)c1cn(-c2cccc3ncccc23)nc1C1CC1; experiment: as §1
[19] = substrate: CC(C)c1c(C(=O)NC(=N)N)cnn1-c1cccc2ncccc12; experiment: as §1
[20] = substrate: N=C(N)NC(=O)c1cnn(-c2ccc3ncccc3c2)c1C1CC1; experiment: as §1
[21] = substrate: COCc1c(C(=O)NC(=N)N)cnn1-c1cccc2ncccc12; experiment: as §1

| Molecule | Drug metabolism [1] | t1/2 [2] [min] | further results |
| --- | --- | --- | --- |
| NC(=O)c1cnn(-c2cccc3ncccc23)c1C1CC1 | metabolite_detected | 110 |  |
| COCc1c(C(=O)NC(=N)N)cnn1-c1cccc2[nH]c(=O)ccc12 |  |  | Drug metabolism [3]: metabolite_detected |
| Cc1ccc2[nH]c(=O)ccc2c1-n1ncc(C(=O)NC(=N)N)c1C1CC1 |  |  | Drug metabolism [4]: metabolite_detected |
| N=C(N)NC(=O)c1cnn(-c2c(O)ccc3[nH]c(=O)ccc23)c1C1CC1 |  |  | Drug metabolism [5]: metabolite_detected |
| CC(C)c1c(C(=O)NC(=N)N)cnn1-c1cccc2ncccc12 | metabolite_detected | 15 |  |
| CCN(CC)C(=O)c1cnn(-c2cccc3[nH]c(=O)ccc23)c1C1CC1 |  |  | Drug metabolism [6]: metabolite_detected |
| COc1ccc2ncccc2c1-n1ncc(C(=O)NC(=N)N)c1C1CC1 | metabolite_detected | 120 |  |
| N=C(N)NC(=O)c1cnn(-c2cccc3[nH]ccc23)c1C1CC1 | metabolite_not_detected |  |  |
| N=C(N)NC(=O)c1cnn(-c2ccc3ncccc3c2)c1C1CC1 | metabolite_detected | < 5 |  |
| N=C(N)NC(=O)c1cnn(-c2cccc3ncccc23)c1C1CC1 [ZONIPORIDE] | metabolite_detected | 26 |  |
| N=C(N)NC(=O)c1cnn(-c2c(O)ccc3ncccc23)c1C1CC1 | metabolite_detected | 120 |  |
| Cc1c(C(=O)N=C(N)N)cnn1-c1cccc2ncccc12 | metabolite_detected | 33 |  |
| CCCCc1c(C(=O)NC(=N)N)cnn1-c1cccc2ncccc12 | metabolite_detected | 48 |  |
| N=C(N)NC(=O)c1cnn(-c2ccnc3ccccc23)c1C1CC1 | metabolite_detected | 14 |  |
| CCN(CC)C(=O)c1cnn(-c2cccc3ncccc23)c1C1CC1 | metabolite_detected | 37 |  |
| Cc1ccc2ncccc2c1-n1ncc(C(=O)NC(=N)N)c1C1CC1 | metabolite_detected | 120 |  |

| Molecule | Drug metabolism [1] | t1/2 [2] [min] | further results |
| --- | --- | --- | --- |
| COc1ccc2[nH]c(=O)ccc2c1-n1ncc(C(=O)NC(=N)N)c1C1CC1 |  |  | Drug metabolism [7]: metabolite_detected |
| CCCc1c(C(=O)NC(=N)N)cnn1-c1cccc2ncccc12 | metabolite_detected | 41 |  |
| N=C(N)NC(=O)c1cnn(-c2cccc3[nH]cnc23)c1C1CC1 | metabolite_detected | 120 |  |
| N=C(N)NC(=O)c1cn(-c2cccc3[nH]c(=O)ccc23)nc1C1CC1 |  |  | Drug metabolism [8]: metabolite_detected |
| NC(=O)c1cnn(-c2cccc3[nH]c(=O)ccc23)c1C1CC1 |  |  | Drug metabolism [9]: metabolite_detected |
| COCc1c(C(=O)NC(=N)N)cnn1-c1cccc2ncccc12 | metabolite_detected | 120 |  |
| N=C(N)NC(=O)c1cnn(-c2cccc3[nH]c(=O)ccc23)c1C1CC1 |  |  | Drug metabolism [10]: metabolite_detected |
| N=C(N)NC(=O)c1cnn(-c2cccc3[nH]ncc23)c1C1CC1 | metabolite_not_detected |  |  |
| CCCCc1c(C(=O)NC(=N)N)cnn1-c1cccc2[nH]c(=O)ccc12 |  |  | Drug metabolism [11]: metabolite_detected |
| O=C(O)c1cnn(-c2cccc3[nH]c(=O)ccc23)c1C1CC1 |  |  | Drug metabolism [12]: metabolite_detected |
| CC(C)c1c(C(=O)NC(=N)N)cnn1-c1cccc2[nH]c(=O)ccc12 |  |  | Drug metabolism [13]: metabolite_detected |
| CCCc1c(C(=O)NC(=N)N)cnn1-c1cccc2[nH]c(=O)ccc12 |  |  | Drug metabolism [14]: metabolite_detected |
| Cc1c(C(=O)NC(=N)N)cnn1-c1cccc2[nH]c(=O)ccc12 |  |  | Drug metabolism [15]: metabolite_detected |
| O=C(O)c1cnn(-c2cccc3ncccc23)c1C1CC1 | metabolite_detected | 120 |  |
| N=C(N)NC(=O)c1cn(-c2cccc3ncccc23)nc1C1CC1 | metabolite_detected | 3.1 |  |
| B1 |  |  | Km [16]: 16 µM; Km [17]: 1.8 µM; Km [18]: 0.4 µM; Km [19]: 2.2 µM; Km [20]: 1.2 µM; Km [21]: 9 µM |
